In ChEMBL document CHEMBL1201862, “PubChem BioAssay data set” (2004) one finds IC50 data, which are given here for two compounds.

The structures appear in SMILES notation. The source made the active and inactive calls. Cut-off read from the data, not from the text of the source: actives have a measured IC50 and inactives only a lower limit.

In this assay the target is Envelope glycoprotein gp160 (Human immunodeficiency virus 1, UniProt Q6QLK5). The assay is described as follows: cell-free HIV fusion peptide-binding blockers – biochemical, uHTS, fluorescence dequenching, […] (AID 1986).
Sequence of Envelope glycoprotein gp160 (Q6QLK5 whole entry, the tested form may be a part): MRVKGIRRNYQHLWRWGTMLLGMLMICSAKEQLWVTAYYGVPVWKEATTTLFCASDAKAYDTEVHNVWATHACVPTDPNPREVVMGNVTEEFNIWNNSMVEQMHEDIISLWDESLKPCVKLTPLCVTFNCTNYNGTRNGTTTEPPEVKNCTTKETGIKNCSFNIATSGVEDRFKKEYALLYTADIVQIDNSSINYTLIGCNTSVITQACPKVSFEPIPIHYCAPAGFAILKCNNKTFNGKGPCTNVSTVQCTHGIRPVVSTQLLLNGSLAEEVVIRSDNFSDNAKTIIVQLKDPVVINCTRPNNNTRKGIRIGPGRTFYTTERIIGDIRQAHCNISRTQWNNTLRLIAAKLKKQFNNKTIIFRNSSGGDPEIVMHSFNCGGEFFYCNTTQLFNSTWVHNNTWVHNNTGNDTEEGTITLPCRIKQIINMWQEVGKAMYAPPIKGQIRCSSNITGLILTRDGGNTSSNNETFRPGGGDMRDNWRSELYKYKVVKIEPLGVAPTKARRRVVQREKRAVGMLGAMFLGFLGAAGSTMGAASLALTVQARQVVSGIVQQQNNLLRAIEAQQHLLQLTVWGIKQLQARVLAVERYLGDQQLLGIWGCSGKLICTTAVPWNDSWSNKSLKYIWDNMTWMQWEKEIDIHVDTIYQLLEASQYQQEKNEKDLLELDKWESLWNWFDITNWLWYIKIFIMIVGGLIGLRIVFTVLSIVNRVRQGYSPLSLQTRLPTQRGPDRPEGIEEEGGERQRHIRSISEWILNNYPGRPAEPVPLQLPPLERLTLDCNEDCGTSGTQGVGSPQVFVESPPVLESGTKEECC

Usually IC50 stands for the concentration needed to halve the response being measured. In the case of `COc1cc(/C=C2\SC(NS(=O)(=O)c3ccc(C)cc3)=NC2=O)c([N+](=O)[O-])cc1OC`, the 50% inhibitory concentration (IC50) is 17.1 µM (active).
The figure for `O=C(O)CCn1cc(/C=C/C(=O)c2ccc(Cl)cc2)c(-c2cccc(Br)c2)n1` is 28 µM (active).
